Data reported in US20100298300A1, “TRIAZOLOPYRAZINE COMPOUNDS USEFUL FOR THE TREATMENT OF DEGENERATIVE & INFLAMMATORY DISEASES” (priority 2006, published 2010).

Experiments:
[1] = test system: MMP1 expression by activated primary synovial fibroblasts; assay: 'MMP assay': MMP1 expression by complex trigger activated synovial fibroblasts (MMP1 ELISA); assay type: cell-based; details: Homo sapiens, Fibroblast; Table 3; RASFs, complex trigger, 48 hrs, MMP1 ELISA
[2] = test system: TNFα release by human PBMCs; assay: Cytokine release by LPS stimulated human PBMCs (TNFα ELISA); assay type: cell-based; details: PBMC, 24 h, Table 5, LPS 1 μg/mL
Experimental: For the assay PBMCs are seeded at 2.5E6 cells/mL in 160 μL in 96-well plates (Nunc). Serial dilution of the test compounds are made first in DMSO (Sigma) and then diluted 50-fold in M199 medium (Gibco) containing 1% heat-inactivated FBS. Compounds are further 1/10 diluted in the assay plates to obtain final DMSO concentration of 0.2%. Cells are preincubated with the compounds for 1 hr at 37° C., 5% CO2. Then, cells are stimulated with LPS (Escherichia coli serotype 026:B6, Cat. No. L2654, Sigma) that is added in a volume of 20 μL to a final concentration of 1 μg/mL and cells are further cultured for 24 hr. The plates are centrifuged and the supernatant is collected and stored at −80° C. until analysis of appropriate dilutions in ELISAs.
After 4 hr incubation at RT, blocking buffer is removed and plates are washed once with PBST (1×PBS with 0.05% Tween-20 (Sigma)). Then, 40 μL of sample is transferred to the ELISA plates and plates are incubated at 4° C. […] After 2 h of incubation at RT, plates are washed as described above and 35 μL/well of a 1/2000 dilution of streptavidin-HRP conjugate (Cat. No. SNN2004, Biosource) in buffer D is added. After 45 min, plates are washed as described above and incubated for 5 min with 50 μL/well BM Chemiluminescence ELISA Substrate POD (Roche). Readout is performed on the Luminoscan Ascent Luminometer (Labsystems) with an integration time of 100 msec delivering raw data (RLU: relative luminescence units). The following controls are included in the experiments, a maximal signal control, in which the cells are activated by LPS but only the 0.2% DMSO vehicle (and thus no compound) is added. […] A minimal signal control is also included in these experiments. Here, cells are not triggered. […] Where compounds are tested at 8 concentrations (1/3 serial dilution), EC50-values can be calculated by curve fitting of the means of the PIN data achieved for a compound at each test concentration.

MAPKAPK5 = molecular target: T1, MAPKAPK5 (Homo sapiens, UniProt Q8IW41); assay: MAPKAP-K5 assay (FlashPlate kinase assay)
T1 sequence (Q8IW41 1-471 isoform Q8IW41-2): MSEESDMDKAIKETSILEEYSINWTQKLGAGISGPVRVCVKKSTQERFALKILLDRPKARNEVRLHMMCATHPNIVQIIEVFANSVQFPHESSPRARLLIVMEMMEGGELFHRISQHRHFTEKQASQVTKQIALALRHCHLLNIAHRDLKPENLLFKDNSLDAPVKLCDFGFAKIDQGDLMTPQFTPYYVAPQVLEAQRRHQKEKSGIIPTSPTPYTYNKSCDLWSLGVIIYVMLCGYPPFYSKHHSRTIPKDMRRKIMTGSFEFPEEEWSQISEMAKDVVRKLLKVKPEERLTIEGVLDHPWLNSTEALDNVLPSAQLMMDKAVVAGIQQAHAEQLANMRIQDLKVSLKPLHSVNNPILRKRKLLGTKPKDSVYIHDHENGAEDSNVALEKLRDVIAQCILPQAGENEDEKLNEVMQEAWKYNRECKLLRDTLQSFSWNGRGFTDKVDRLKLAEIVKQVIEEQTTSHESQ
Experimental: MAPKAP-K5 reactions are performed in FlashPlate format using 0.1 or 0.2 μCi 33P-ATP; 0.6 μM ATP; 1 mU MAPKAP-K5; 3 μM MAPKAP-K5 peptide substrate, incubated at room temperature for 30 minutes.
The MAPKAP-K5 kinase reaction is performed in a 384 well polypropylene plate (Matrix Technologies) and then transferred to a streptavidin-coated 384 well flashplate (Perkin-Elmer).
To wells containing 2 μL test compound or standard inhibitor, 13 μL Enzyme mix or diluent are added using a Hydra (Robbins Scientific).
Reactions are started by addition of 10 μL of [2,5×] substrate cocktail using a Multidrop (Thermo-Labsystems), to give final concentrations in the assay of:
Plates are incubated at room temperature for 30 minutes.
Reactions are terminated by the addition of 25 μL EDTA (50 mM) to each well using a Micro-fill (Biotek).
Reactions are transferred to a streptavidin-coated flashplate using a Zymark robotic system. Plates are incubated for 60 minutes at room temperature.
All wells are washed 3 times with 100 μl phosphate buffered saline using a Tecan plate washer.
Radioactivity is determined by scintillation counting of the flashplate (empty wells) on a Packard TopCount.
Enzyme Mix: • Enzyme • 50 mM Tris Hcl (pH 7.5) • 0.1 mM EGTA • 2 mM DTT • 1 mg/mL BSA
Reaction Buffer: • 50 mM Tris Hcl (pH 7.5) • 0.1 mM EGTA • 10 mM Magnesium acetate • 2 mM DTT

IC50 (MAPKAPK5) | SMILES | EC50 [1] | EC50 [2]
> 1000 nM | CC(C)N1CCC(c2ccc(Nc3ncc(-c4cn[nH]c4)n4ncnc34)cn2)CC1 [Compound 172] | > 1000 nM | > 1000 nM
1 to 100 nM | CC(C)N1CCN(c2ccc(Nc3ncc(-c4ccc5c(c4)CNC5=O)n4ncnc34)cn2)CC1 [Compound 79, 5-(8-(6-(4-Isopropylpiperazin-1-yl)pyridin-3-ylamino)-[1,2,4]triazolo[1,5-a]pyrazin-5-yl)isoindolin-1-one] | 501 to 1000 nM | > 1000 nM
1 to 100 nM | CC(C)N1CCN(c2ccc(Nc3ncc(-c4csc(C(N)=O)c4)n4ncnc34)cc2)CC1 [Compound 28, 4-(8-(4-(4-Isopropylpiperazin-1-yl)phenylamino)-[1,2,4]triazolo[1,5-a]pyrazin-5-yl)thiophene-2-carboxamide] | 501 to 1000 nM | > 1000 nM
> 1000 nM | NC(=O)c1cc(-c2cnc(Nc3ccc(C4CCN(CC(F)(F)F)CC4)cc3)c3ncnn23)cs1 [Compound 63, 4-(8-{4-[1-(2,2,2-Trifluoroethyl)piperidin-4-yl]phenylamino}-[1,2,4]triazolo[1,5-a]pyrazin-5-yl)thiophene-2-carboxylic acid amide] | 101 to 500 nM | > 1000 nM
501 to 1000 nM | c1nc2c(Nc3ccc(N4CCNCC4)cc3)ncc(-c3cn[nH]c3)n2n1 [Compound 40] | > 1000 nM | 501 to 1000 nM
101 to 500 nM | NC(=O)c1cc(-c2cnc(Nc3ccc(N4CCN(CC(F)(F)F)CC4)cc3)c3ncnn23)cs1 [Compound 57, 4-(8-{4-[4-(2,2,2-Trifluoroethyl)piperazin-1-yl]-phenylamino}-[1,2,4]triazolo[1,5-a]pyrazin-5-yl)thiophene-2-carboxylic acid amide] | 101 to 500 nM | > 1000 nM
> 1000 nM | CN1CCN(c2ccc(Nc3ncc(-c4cn[nH]c4)n4ncnc34)cc2)CC1 [Compound 2] | > 1000 nM | > 1000 nM
101 to 500 nM | C[C@@H]1CN(c2ccc(Nc3ncc(-c4cn[nH]c4)n4ncnc34)cc2)[C@@H](C)CN1C [Compound 31] | > 1000 nM | > 1000 nM
> 1000 nM | O=C1NCc2cc(-c3cnc(Nc4ccc(N5CCOCC5)cc4F)c4ncnn34)ccc21 [Compound 75] | > 1000 nM | > 1000 nM
> 1000 nM | Cc1[nH]ncc1-c1cnc(Nc2ccc(N3CCN(C)CC3)cc2)c2ncnn12 [Compound 16, 5-(5-Methyl-1H-pyrazol-4-yl)-N-(4-(4-methylpiperazin-1-yl)phenyl)-[1,2,4]triazolo[1,5-a]pyrazin-8-amine] | > 1000 nM | > 1000 nM
101 to 500 nM | CNCc1cc(Nc2ncc(-c3ccc4c(c3)CNC4=O)n3ncnc23)ccc1N1CCOCC1 [Compound 179] | > 1000 nM | > 1000 nM
501 to 1000 nM | NC(=O)c1ccc(-c2cnc(Nc3ccc(OCCN4CCOCC4)cc3)c3ncnn23)s1 [Compound 22, 5-(8-(4-(2-Morpholinoethoxy)phenylamino)-[1,2,4]triazolo[1,5-a]pyrazin-5-yl)thiophene-2-carboxamide] | > 1000 nM | > 1000 nM
> 1000 nM | c1nc2c(Nc3ccc(N4CCN(C5CC5)CC4)nc3)ncc(-c3cn[nH]c3)n2n1 [Compound 60, [6-(4-Cyclopropylpiperazin-1-yl)pyridin-3-yl]-[5-(1H-pyrazol-4-yl)-[1,2,4]triazolo[1,5-a]pyrazin-8-yl]amine] | > 1000 nM | > 1000 nM
501 to 1000 nM | CC(C)N1CCN(c2ccc(Nc3ncc(-c4cn[nH]c4)n4ncnc34)cc2)CC1 [Compound 38] | > 1000 nM | > 1000 nM
> 1000 nM | NC(=O)c1ccc(-c2cnc(Nc3ccc(N4CCOCC4)cc3)c3ncnn23)s1 [Compound 13] | 101 to 500 nM | > 1000 nM
> 1000 nM | c1nc2c(Nc3ccc(N4CCOCC4)cc3)ncc(-c3ccc4nonc4c3)n2n1 [Compound 72] | > 1000 nM | > 1000 nM

IC50 (MAPKAPK5) | SMILES | EC50 [1] | EC50 [2]
1 to 100 nM | O=C1NCc2cc(-c3cnc(Nc4ccc(N5CCOCC5)nc4)c4ncnn34)ccc21 [Compound 87] | 101 to 500 nM | > 1000 nM
101 to 500 nM | CC(C)N1CCN(c2ccc(Nc3ncc(-c4ccc5c(c4)CNC5=O)n4ncnc34)c(Cl)c2)CC1 [Compound 77] | > 1000 nM | > 1000 nM
101 to 500 nM | O=C1NCc2cc(-c3cnc(NC4CCCCC4)c4ncnn34)ccc21 [Compound 115] | > 1000 nM | > 1000 nM
> 1000 nM | NC(=O)c1ccc(-c2cnc(Nc3ccc(N4CCOCC4)cc3)c3ncnn23)cc1F [Compound 11] | 101 to 500 nM | > 1000 nM
1 to 100 nM | CN1CCN(c2ccc(Nc3ncc(-c4csc(C(N)=O)c4)n4ncnc34)cc2)CC1 [Compound 6, 4-{8-[4-(4-Methyl-piperazin-1-yl)-phenylamino]-[1,2,4]triazolo[1,5-a]pyrazin-5-yl}-thiophene-2-carboxylic acid amide] | 101 to 500 nM | > 1000 nM
1 to 100 nM | CC(C)N1CCN(c2ccc(Nc3ncc(-c4ccc5c(c4)CNC5=O)n4ncnc34)cc2)CC1 [Compound 36, 5-(8-(4-(4-Isopropylpiperazin-1-yl)phenylamino)-[1,2,4]triazolo[1,5-a]pyrazin-5-yl)isoindolin-1-one] | 101 to 500 nM | > 1000 nM
101 to 500 nM | NC(=O)c1cc(-c2cnc(Nc3ccc(N4CCNCC4)cc3)c3ncnn23)cs1 [Compound 27] | 501 to 1000 nM | > 1000 nM
> 1000 nM | c1nc2c(Nc3ccc(N4CCN(CC5CC5)CC4)nc3)ncc(-c3cn[nH]c3)n2n1 [Compound 42, [6-(4-[Cyclopropylmethyl]piperazin-1-yl)pyridin-3-yl]-[5-(1H-pyrazol-4-yl)-[1,2,4]triazolo[1,5-a]pyrazin-8-yl]amine] | > 1000 nM | > 1000 nM
> 1000 nM | CC(=O)c1ccc(-c2cnc(Nc3ccc(N4CCOCC4)cc3)c3ncnn23)s1 [Compound 69] | > 1000 nM | > 1000 nM
> 1000 nM | OCc1cc(Nc2ncc(-c3cn[nH]c3)n3ncnc23)ccc1N1CCOCC1 [Compound 37, {5-[5-(1H-Pyrazol-4-yl)-[1,2,4]triazolo[1,5-a]pyrazin-8-ylamino]-2-morpholinophenyl}methanol] | 501 to 1000 nM | > 1000 nM
> 1000 nM | CC(C)N1CCN(c2ccc(Nc3ncc(-c4ccnc(CF)c4)n4ncnc34)cc2)CC1 [Compound 91] | > 1000 nM | > 1000 nM
101 to 500 nM | NC(=O)c1cc(-c2cnc(Nc3ccc(N4CCN(CC5CC5)CC4)cc3)c3ncnn23)cs1 [Compound 58, 4-{8-[4-(4-(Cyclopropylmethyl)piperazin-1-yl)-phenylamino]-[1,2,4]triazolo[1,5-a]pyrazin-5-yl}thiophene-2-carboxylic acid amide] | 101 to 500 nM | > 1000 nM
1 to 100 nM | CC(C)N1CCC(c2ccc(Nc3ncc(-c4csc(C(N)=O)c4)n4ncnc34)cc2)CC1 [Compound 89, 4-{8-[4-(1-Isopropylpiperidin-4-yl)phenylamino]-[1,2,4]triazolo[1,5-a]pyrazin-5-yl}-thiophene-2-carboxylic acid amide] | 501 to 1000 nM | > 1000 nM
501 to 1000 nM | CC(C)(C)N1CCN(c2ccc(Nc3ncc(-c4cn[nH]c4)n4ncnc34)cc2)CC1 [Compound 103] | 501 to 1000 nM | 101 to 500 nM
> 1000 nM | Clc1cc(N2CCOCC2)ccc1Nc1ncc(-c2cn[nH]c2)n2ncnc12 [Compound 68] | > 1000 nM | > 1000 nM
